Laboratory results published in PubChem BioAssay (NCI).
Several values for one entry are separate records, joined by “and”; a condition that tells them apart may be missing. Equal entries are not always repeated.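 Exposure lasted 48 hours, with cells grown in 96-well plates and compounds tested at five concentrations. GI50 is the concentration that inhibits growth by half. TGI marks complete inhibition of growth.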

Assays:
Assay in all cases: NCI anticancer screen, dose series, 48 h
HOP-62 NSCLC = tested on: HOP-62 NSCLC
SK-MEL-5 melanoma = tested on: SK-MEL-5 melanoma
MOLT-4 leukemia = tested on: MOLT-4 leukemia
LOX IMVI melanoma = tested on: LOX IMVI melanoma
UACC-257 melanoma = tested on: UACC-257 melanoma
SK-OV-3 ovarian = tested on: SK-OV-3 ovarian
T-47D breast = tested on: T-47D breast
SF-268 CNS = tested on: SF-268 CNS

| SMILES | GI50 (HOP-62 NSCLC) | TGI (HOP-62 NSCLC) | GI50 (SK-MEL-5 melanoma) | TGI (SK-MEL-5 melanoma) | GI50 (MOLT-4 leukemia) | TGI (MOLT-4 leukemia) | GI50 (LOX IMVI melanoma) | TGI (LOX IMVI melanoma) | GI50 (UACC-257 melanoma) | TGI (UACC-257 melanoma) | GI50 (SK-OV-3 ovarian) | TGI (SK-OV-3 ovarian) | GI50 (T-47D breast) | TGI (T-47D breast) | GI50 (SF-268 CNS) | TGI (SF-268 CNS) |
| --- | --- | --- | --- | --- | --- | --- | --- | --- | --- | --- | --- | --- | --- | --- | --- | --- |
| CC(C)(C)c1cc(-c2nc3c(F)c(F)c(F)c(F)c3[nH]2)cc(C(C)(C)C)c1O | > 100 µM | > 100 µM | > 100 µM | > 100 µM | > 100 µM | > 100 µM | > 100 µM | > 100 µM | > 100 µM | > 100 µM | > 100 µM | > 100 µM | > 100 µM | > 100 µM | > 100 µM | > 100 µM |
| Cc1ccc(C2=NN(c3ccc(S(N)(=O)=O)cc3)C(c3cn(-c4ccccc4)nc3-c3ccccc3)C2)cc1 (stereo not given) | > 100 µM | > 100 µM | 16.6 µM | > 100 µM | 3.72 µM | > 100 µM | 24.9 µM | > 100 µM | 29.6 µM | > 100 µM | > 100 µM | > 100 µM | 9.13 µM | > 100 µM | 25.7 µM | > 100 µM |
| CC(=O)[O][Bi]([c]1ccccc1)[c]1ccccc1 | 17 µM | 33.8 µM | 12.8 µM | 25.9 µM | 2.9 µM | > 100 µM | 1.98 µM | 5.24 µM | 11.2 µM | 23.6 µM | 16.6 µM | 30.5 µM | 5.61 µM | > 100 µM | 14.4 µM | 29.9 µM |
| COc1cc2c3c(n(CCCN4CCCC(O)C4)c(=O)c2cc1OC)-c1cc2c(cc1C3=O)OCO2 (stereo not given) | 0.0194 µM | 0.0746 µM | 0.318 µM | 20.6 µM | < 0.005 µM | 0.678 µM | 0.0213 µM | 0.849 µM | 7.74 µM | 15.1 µM | 3.8 µM | 27.2 µM | 1.16 µM | 3.2 µM | 0.593 µM | 1.94 µM |
| CCN(CC)CC[n+]1cc2cc(OC)c(OC)cc2c2ccc3cc4c(cc3c21)OCO4 | 0.354 µM | 1.93 µM | 1.31 µM | 2.61 µM | 0.37 µM | 4.64 µM | 0.355 µM | 0.996 µM | 1.45 µM | 3.36 µM | 0.52 µM | 2.08 µM | 0.378 µM | 12.1 µM | 0.386 µM | 2.71 µM |
| O=C(O)c1ccccc1Nc1ccc2nnc(-c3ccncc3)n2n1 | 15.4 µM | 33.5 µM | 3.92 µM | 14.8 µM | 6.99 µM | > 100 µM | 1.97 µM | 4.1 µM | 10.6 µM | 33.6 µM | 22 µM | > 100 µM | 4.3 µM | 22.3 µM | 5.6 µM | 29.2 µM |
| Cc1ccc(NC(=O)c2cc3ccccc3cc2O)c(C)c1.Cc1ccc(NC(=O)c2cc3ccccc3cc2[O-])c(C)c1.[Ni+2] | 3.87 µM | 17 µM | 2.57 µM | 10.2 µM |  |  |  |  | 2.94 µM | 7.85 µM | 2.9 µM | 11.6 µM | 3.08 µM | 14.8 µM | 3.52 µM | 17.2 µM |
| Cc1cc2nc(C(Cl)Cl)nc(-c3ccccc3)n2n1 | 2.48 µM | 8.64 µM | 39.3 µM | > 100 µM | 5.67 µM | > 100 µM | 24.4 µM | > 100 µM | 7.35 µM | 34.2 µM | 3.34 µM | 21.5 µM | 4 µM | 89.1 µM | 4.76 µM | 39.4 µM |
| Cc1ccc2c(c1)C=CC(C#N)N2C(=O)Oc1ccccc1 (stereo not given) |  |  |  | > 100 µM |  | 54.9 µM |  | 40 µM |  | > 100 µM |  |  |  | 73.8 µM |  | > 100 µM |
| Cn1c(=O)c2[nH]c(CCCCc3nc4c([nH]3)c(=O)n(C)c(=S)n4C)nc2n(C)c1=S |  | > 100 µM |  | > 100 µM |  |  |  | > 100 µM |  | > 100 µM |  | > 100 µM |  | > 100 µM |  | > 100 µM |
| CCOCCOC[C@H]1CCCN(c2ccnc3sc(C(N)=O)c(N)c23)C1 | > 100 µM | > 100 µM | 4.05 µM | 36.9 µM | 10.1 µM | > 100 µM | 29.3 µM | > 100 µM | 12.4 µM | > 100 µM | 40.3 µM | > 100 µM | 3.9 µM | > 100 µM | 56.4 µM | > 100 µM |
| C/C=C/C1=CN2C(=O)c3cc(OC4OC(C)C(NC)C(C)(O)C4O)c(C)c(O)c3N=C[C@@H]2C1 (stereo not given in full) |  |  |  |  | 0.0413 µM and < 0.01 µM |  | 0.0619 µM and < 0.01 µM | 4.06 µM |  |  |  | 12.4 µM |  | 15.3 µM | 0.0342 µM and < 0.01 µM |  |
| Nc1ncnc2c1ncn2C1OC(COC2C(CO)OC(OC(C(=O)O)C(O)C(OP(=O)(O)O)C(O)C(=O)O)C(O)C2O)C(O)C1O (stereo not given) |  | > 100 µM |  | > 100 µM |  | > 100 µM |  | > 100 µM |  | > 100 µM |  | > 100 µM |  |  |  | > 100 µM |
| Nc1nc(-c2cccs2)cs1 |  | > 100 µM |  | > 100 µM |  |  |  | > 100 µM |  | > 100 µM |  | > 100 µM |  | > 100 µM |  | > 100 µM |
| Nc1ccccc1C#Cc1ccccc1C#Cc1cnccn1 | 21.1 µM | 54.9 µM | 4.6 µM | 18 µM | 40.8 µM | > 100 µM | 17 µM | 33.7 µM | 35.3 µM | 79.9 µM | 22.2 µM | 55 µM |  |  | 11.7 µM | 25.1 µM |
| c1ccc2c3c(ccc2c1)-c1c(ccc2c(NCCCCN4CCCCC4)cccc12)C3 | 1.57 µM | 2.91 µM | 11 µM | 26.7 µM | 2.09 µM | > 100 µM |  |  | 1.89 µM | 4.92 µM | 10 µM | 35.3 µM | 4.27 µM | > 100 µM | 1.07 µM | 2.25 µM |
| COc1cc(/C=C2\C[C@H]3[C@@H]4CC=C5C[C@@H](OC(C)=O)CC[C@]5(C)[C@H]4CC[C@]3(C)[C@H]2OC(C)=O)ccc1OCCN1CCCCC1 | 8.96 µM | 27.1 µM | 8.16 µM | 15.5 µM | > 50 µM | > 50 µM | 9.63 µM | 18.5 µM | 5.77 µM | 13.6 µM |  |  | > 50 µM | > 50 µM | 35.7 µM | > 50 µM |
